Data on 18 compounds can be found in patent publication US12071443B2, “Prolyl hydroxylase domain-containing protein (PHD) inhibitors and uses thereof” (Insilico Medicine IP Limited, priority 2021, dated 2024).

In general, EC50 refers to the concentration giving half of the maximal effect.

For one test, the target named is PHD2 (Homo sapiens, UniProt Q9GZT9). Kind of test: PHD2 enzymatic assay (AlphaScreen). The test is classed as biochemical. The following applies: PHD2 enzyme, AlphaScreen, IC50 from % inhibition; read-out: PHD2. (In general: In Alpha technology, singlet oxygen from a donor bead excites a nearby acceptor bead.)
For test [1], the system named is Caco2-HIF1α-HiBiT-clone-1 cells. Kind of test: Caco-2 HIF1α-HiBiT assay. Format: cell-based. The following applies: Homo sapiens, Caco-2; Caco2-HIF1α-HiBiT-clone-1 cells, 6 h incubation, luminescence; read-out: Caco2-HIF1α-HiBit assay - EC50. (In general: HiBiT is a short tag that completes a luciferase, so light tracks the accessible tagged protein.)

Where only a bound is given, the exact number is not on record here.

Sequence of PHD2 (Q9GZT9 whole entry): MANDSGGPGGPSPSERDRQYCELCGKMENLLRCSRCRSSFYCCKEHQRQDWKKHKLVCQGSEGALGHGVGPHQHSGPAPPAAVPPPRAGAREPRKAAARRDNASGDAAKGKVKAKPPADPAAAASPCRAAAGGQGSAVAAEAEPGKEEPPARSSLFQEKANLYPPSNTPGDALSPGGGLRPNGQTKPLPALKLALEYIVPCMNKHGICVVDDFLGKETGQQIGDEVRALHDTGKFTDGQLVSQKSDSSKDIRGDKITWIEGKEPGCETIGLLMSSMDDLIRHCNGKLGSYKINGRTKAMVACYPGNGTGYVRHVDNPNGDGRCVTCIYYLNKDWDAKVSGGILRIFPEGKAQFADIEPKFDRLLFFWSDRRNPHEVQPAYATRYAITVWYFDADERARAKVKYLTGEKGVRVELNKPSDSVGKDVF

Turning to `N#Cc1ccc(CNC(=O)c2ncc3nc(N4CCC(C(=O)OC5CC5)CC4)ccc3c2O)cn1` [Example 96], the IC50 at PHD2 is under 0.005 µM. Also, in test [1], the EC50 is 10 to 100 µM.
As to `COCCOC(=O)C1CCN(c2ccc3c(O)c(C(=O)NCc4ccc(C#N)nc4)ncc3n2)CC1` [Example 86], the IC50 on PHD2 is under 0.005 µM. In test [1], the concentration giving a half-maximal response (EC50) was 10 to 100 µM.
On to `COCCC(=O)N1CCN(c2ccc3c(O)c(C(=O)NCc4ccc(C#N)nc4)ncc3n2)CC1` [Example 73, N-((6-cyanopyridin-3-yl)methyl)-5-hydroxy-2-(4-(3-methoxypropanoyl)piperazin-1-yl)-1,7-naphthyridine-6-carboxamide], for which the IC50 on PHD2 was under 0.005 µM. Moreover, the half-maximal effective concentration (EC50) in test [1] is 5 to 7.5 µM.
The corresponding values for `CC(C)(C)OC(=O)N1CCN(c2ccc3c(O)c(C(=O)NCc4ccc(C#N)nc4)ncc3n2)CC1` [Example 29, tert-butyl 4-(6-(((6-cyanopyridin-3-yl)methyl)carbamoyl)-5-hydroxy-1,7-naphthyridin-2-yl)piperazine-1-carboxylate] are under 0.005 µM and under 2.5 µM.
In the case of `N#Cc1ccc([C@@H](CO)NC(=O)c2ncc3nc(N4CCOCC4)ccc3c2O)cn1` [Example 64], at PHD2, the IC50 was 0.1 to 1 µM. For the same compound, the EC50 in test [1] lay within 10 to 100 µM.
The corresponding values for `COC(=O)C1(O)CN(c2ccc3c(O)c(C(=O)NCc4ccc(C#N)nc4)ncc3n2)C1` [Example 121] are under 0.005 µM and 7.5 to 10 µM.
On the same counts, the results for `COC(=O)[C@H]1CN(c2ccc3c(O)c(C(=O)NCc4ccc(C#N)nc4)ncc3n2)CCN1C1CC1` [Example 89] are under 0.005 µM and 2.5 to 5 µM.
Regarding `C[C@H](NC(=O)c1ncc2nc(N3CCOCC3)ccc2c1O)c1ccc(C#N)cc1` [Example 17], the IC50 at PHD2 lay within 1 to 100 µM. In addition, the EC50 in test [1] fell in the range of 10 to 100 µM.
Regarding `COCCN1CCN(c2ccc3c(O)c(C(=O)NCc4ccc(C#N)nc4)ncc3n2)CC1` [Example 75], the IC50 at PHD2 was under 0.005 µM. For the same compound, in test [1], the EC50 lay in the range of 5 to 7.5 µM.
Turning to `N#Cc1ccc(CNC(=O)c2ncc3nc(N4CCOCC4=O)ccc3c2O)cn1` [Example 100], the IC50 on PHD2 is 0.005 to 0.02 µM. For the same compound, the concentration for a half-maximal effect (EC50) in test [1] was in the range of 7.5 to 10 µM.
On the same counts, the results for `CC(C)OC(=O)C1CCN(c2ccc3c(O)c(C(=O)NCc4ccc(C#N)nc4)ncc3n2)CC1` [Example 95] are under 0.005 µM and 10 to 100 µM.
On the same counts, the results for `CC(C)(C)OC(=O)NC1CCN(c2ccc3c(O)c(C(=O)NCc4ccc(C#N)nc4)ncc3n2)C1=O` (stereo not drawn) [Example 144] are 0.005 to 0.02 µM and 2.5 to 5 µM.
As for `CC(C)(C)OC(=O)N1CCN(c2ccc3c(O)c(C(=O)NCc4ccc(C#N)nc4)ncc3n2)C[C@@H]1C#N` [Example 132], the IC50 on PHD2 was under 0.005 µM. Further, the 50% effective concentration (EC50) in test [1] lay within 5 to 7.5 µM.
On the same counts, the results for `CN1CCN(c2ccc3c(O)c(C(=O)NCc4ccc(C#N)nc4)ncc3n2)C[C@@H]1CO` [Example 45, (R)—N-((6-cyanopyridin-3-yl)methyl)-5-hydroxy-2-(3-(hydroxymethyl)-4-methylpiperazin-1-yl)-1,7-naphthyridine-6-carboxamide] are under 0.005 µM and 10 to 100 µM.
The corresponding values for `COc1cc(C#N)ncc1CNC(=O)c1ncc2nc(N3CCOCC3)ccc2c1O` [Example 32] are under 0.005 µM and 10 to 100 µM.
Turning to `N#Cc1ncc(CNC(=O)c2ncc3nc(N4CCOCC4)ccc3c2O)cn1` [Example 23], the IC50 at PHD2 was under 0.005 µM. Besides, the EC50 in test [1] was 5 to 7.5 µM.
Turning to `CC(C)(C)OC(=O)N[C@@H]1CN(c2ccc3c(O)c(C(=O)NCc4ccc(C#N)nc4)ncc3n2)C[C@@H]1F` [Example 142], the IC50 at PHD2 fell in the range of 0.005 to 0.02 µM. In addition, the EC50 in test [1] fell in the range of 2.5 to 5 µM.
Regarding `N#Cc1ccc(CNC(=O)c2ncc3nc(N4CC(N)C4)ccc3c2O)cn1` [Example 128, 2-(3-aminoazetidin-1-yl)-N-((6-cyanopyridin-3-yl)methyl)-5-hydroxy-1,7-naphthyridine-6-carboxamide], the IC50 on PHD2 is 0.02 to 0.1 µM. Moreover, in test [1], the EC50 lay in the range of 5 to 7.5 µM.
